Source: patent US8299064B2, “Fused polycyclic compounds having a heterocyclic ring(s) and pharmaceutical use thereof” (priority 2003, dated 2012)

Test system: adipose cells of rats
Assay: Evaluation of the sugar transporting capacity (2-[14C(U)]-deoxy-D-glucose incorporation)
Type: cell-based
Settings: insulin 100 nM; isolated rat adipose cells
Protocol: After the decapitation and venesection of 6 male Wistar rats (body weight: 150 to 200 g), an incision was made in the abdomen of each rat to extract 6 g in total of epididymal adipose tissues. The tissues were finely cut into 2 mm×2 mm pieces in 6 ml of KRH (Krebs-Ringer Hepes, composition: 130 mM of sodium chloride, 4.7 mM of potassium chloride, 1.2 mM of potassium dihydrogenphosphate, 1.2 mM of magnesium sulfate, 1 mM of calcium chloride and 25 mM of Hepes, pH=7.6) containing 5% of BSA (bovine serum albumin). 24 mg of collagenase (type I) was added thereto and the digestion treatment was conducted for about 40 minutes to obtain about 6 ml of isolated adipose cells. The collagenase was removed by the buffer exchange. 2% BSA/KRH solution was added to the residue for the re-suspension to obtain 45 ml of an adipose cell suspension.
The sugar transporting capacity of the compound of the present invention was evaluated with reference to a method described in a literature [Annual Review of Biochemistry, Vol. 55, p. 1059 (1986)]. […]
The sugar transporting capacity was evaluated by measuring the quantity of 2-[^14C(U)]-deoxy-D-glucose incorporated per a unit time. […] The quantity of 2-[^14C(U)]-deoxy-D-glucose contained in the adipose cell layer was determined with a liquid scintillation counter to determine the quantity of the incorporated sugar. […]

Substance: insulin
- effect of increasing the sugar-transporting capacity versus insulin-free control group: about 7 times
